Data taken from patent publication EP4664463A1, “COMPUTER-IMPLEMENTED METHOD FOR OLFACTORY PROPERTY PREDICTION” (Givaudan SA, priority 2024, dated 2025).
“Also recorded” adds a separate entry of the source. Like-named read-outs stand apart in the source and are kept apart here. Marks after values point to notes of the source that are not given here. Values belong to the compound of their own block, whether it stands above or below them.

Columns and labels:
OR10H5 [1] = assay: Luciferase dose-response, wild-type vs changed C-terminus (SEQ ID NO: 86); format: cell-based, human
Text: (§1) To create an expression plasmid, an OR coding sequence fused at the end of TM7 to the desired C-terminus sequence was synthesized by a DNA synthesis service provider (BioCat GmbH, Germany) and inserted into pcDNA3.1(+) (Invitrogen, MA, USA) downstream of the CMV promoter sequence (SEQ ID NO: 82) using BamHI and Notl restriction sites. All the synthetic OR nucleotide sequences described below in Examples 1-15 further contained at their N-terminus a nucleotide sequence encoding a signal peptide (mmLucy-FLAG-rho, SeQ ID NOs: 80, 81) and at the C-terminus the bgh terminator sequence (SEQ ID NO: 83). All the OR expression plasmids also contain a Kozak sequence (GCCACC) between the BamHI restriction site and the start codon of the signal peptide. These plasmids thus contain a constitutively expressed OR gene.

OR10H5 [2] = molecular target: T1, OR10H5 (Homo sapiens, UniProt Q8NGA6); assay: as above; format: cell-based
T1 construct: expressed in transfected cells; host or cells: HEK293T cells stably expressing human RTP1S (V227I) and RTP2 (L220R)
Text: as §1
T1 sequence (Q8NGA6 with tags, fused parts or gaps): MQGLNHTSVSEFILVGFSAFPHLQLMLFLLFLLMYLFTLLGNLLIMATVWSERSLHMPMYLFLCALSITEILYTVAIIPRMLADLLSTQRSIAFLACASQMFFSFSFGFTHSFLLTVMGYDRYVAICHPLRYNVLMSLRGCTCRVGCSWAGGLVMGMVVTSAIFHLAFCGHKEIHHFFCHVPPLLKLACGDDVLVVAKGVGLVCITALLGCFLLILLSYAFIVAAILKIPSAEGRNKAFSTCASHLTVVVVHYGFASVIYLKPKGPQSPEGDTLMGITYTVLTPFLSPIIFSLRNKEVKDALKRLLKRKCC

OR10H5 [3] = molecular target: T2, OR10H5 (Homo sapiens, UniProt Q8NGA6); assay: as above; format: cell-based; settings: wild-type
T2 construct: expressed in transfected cells; host or cells: HEK293T cells stably expressing human RTP1S (V227I) and RTP2 (L220R)
Text: as §1
T2 sequence (Q8NGA6 whole entry): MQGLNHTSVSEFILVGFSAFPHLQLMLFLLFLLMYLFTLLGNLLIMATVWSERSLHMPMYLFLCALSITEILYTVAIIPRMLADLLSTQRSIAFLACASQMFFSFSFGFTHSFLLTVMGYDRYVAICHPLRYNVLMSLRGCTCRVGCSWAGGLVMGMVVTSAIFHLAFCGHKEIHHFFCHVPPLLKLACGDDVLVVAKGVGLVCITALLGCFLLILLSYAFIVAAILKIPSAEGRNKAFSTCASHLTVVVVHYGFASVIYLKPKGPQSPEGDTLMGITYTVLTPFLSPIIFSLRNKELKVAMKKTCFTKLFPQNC

OR2T11 [4] = molecular target: T3, OR2T11 (Homo sapiens, UniProt Q8NH01); assay: cell-based; format: cell-based
T3 construct: expressed in transfected cells; host or cells: HEK293T stably expressing human RTP1S(V227I) and RTP2(L220R)
Text: as §1
T3 sequence (Q8NH01 with tags, fused parts or gaps): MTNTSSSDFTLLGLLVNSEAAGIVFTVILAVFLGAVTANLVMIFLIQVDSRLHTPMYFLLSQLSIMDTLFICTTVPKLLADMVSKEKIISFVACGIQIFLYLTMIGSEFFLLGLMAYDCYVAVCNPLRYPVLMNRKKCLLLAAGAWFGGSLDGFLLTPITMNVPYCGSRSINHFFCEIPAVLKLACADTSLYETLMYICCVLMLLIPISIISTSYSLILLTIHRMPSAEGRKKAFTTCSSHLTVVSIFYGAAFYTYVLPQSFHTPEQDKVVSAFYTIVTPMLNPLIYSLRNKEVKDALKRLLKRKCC

OR2T11 [5] = molecular target: T4, OR2T11 (Homo sapiens, UniProt Q8NH01); assay: cell-based; format: cell-based; remark: listed apart in the source
T4 construct: expressed in transfected cells; host or cells: HEK293T stably expressing human RTP1S(V227I) and RTP2(L220R)
Text: as §1
T4 sequence (Q8NH01 whole entry): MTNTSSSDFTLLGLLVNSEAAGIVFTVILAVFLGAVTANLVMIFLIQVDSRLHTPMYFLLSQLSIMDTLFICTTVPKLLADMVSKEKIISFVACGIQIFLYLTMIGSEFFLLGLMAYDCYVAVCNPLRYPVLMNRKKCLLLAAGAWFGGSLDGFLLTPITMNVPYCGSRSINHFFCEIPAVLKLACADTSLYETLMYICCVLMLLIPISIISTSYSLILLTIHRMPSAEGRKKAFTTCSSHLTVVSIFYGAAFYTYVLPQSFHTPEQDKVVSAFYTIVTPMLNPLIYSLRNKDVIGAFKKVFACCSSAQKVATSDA

OR2T11 [6] = assay: cell-based; format: cell-based, human
Text: as §1

OR2T4 = molecular target: T5, OR2T4 (Homo sapiens, UniProt Q8NH00, D328E/G331D/M330K); assay: cell-based; format: cell-based; settings: OR2T4 with SEQ ID NO: 86
T5 construct: expressed in transfected cells; host or cells: HEK293T cells stably expressing human RTP1S (V227I) and RTP2 (L220R)
T5 sequence (Q8NH00 with tags, fused parts or gaps D328E/M330K/G331D): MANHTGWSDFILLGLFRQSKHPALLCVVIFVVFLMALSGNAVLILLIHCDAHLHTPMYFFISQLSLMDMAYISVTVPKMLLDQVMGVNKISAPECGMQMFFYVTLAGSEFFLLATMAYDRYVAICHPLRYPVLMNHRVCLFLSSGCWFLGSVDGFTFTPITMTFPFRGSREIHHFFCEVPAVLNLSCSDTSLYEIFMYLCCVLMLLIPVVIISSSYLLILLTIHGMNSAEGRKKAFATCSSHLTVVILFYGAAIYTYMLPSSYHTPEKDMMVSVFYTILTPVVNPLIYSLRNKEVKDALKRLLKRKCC
Text: as §1

OR5A2 [7] = molecular target: T6, OR5A2 (Homo sapiens, UniProt Q8NGI9); assay: Luciferase dose-response, wild-type vs changed C-terminus (SEQ ID NO: 86); format: cell-based
T6 construct: expressed in transfected cells; host or cells: HEK293T cells with stably integrated human RTP1S (V227I) and RTP2 (L220R)
T6 sequence (Q8NGI9 1-324): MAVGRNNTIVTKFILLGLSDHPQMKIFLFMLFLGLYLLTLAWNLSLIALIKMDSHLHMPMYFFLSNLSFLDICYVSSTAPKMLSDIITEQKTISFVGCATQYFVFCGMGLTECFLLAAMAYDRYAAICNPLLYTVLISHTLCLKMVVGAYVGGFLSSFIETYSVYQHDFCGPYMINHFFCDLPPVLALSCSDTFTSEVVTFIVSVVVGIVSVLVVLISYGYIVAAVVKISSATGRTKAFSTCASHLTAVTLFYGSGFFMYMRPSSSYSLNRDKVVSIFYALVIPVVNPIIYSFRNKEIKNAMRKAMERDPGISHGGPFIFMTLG
Text: as §1

OR5A2 [8] = assay: as above; format: cell-based, human
Text: as §1

OR5A2 [9] = molecular target: T7, OR5A2 (Homo sapiens, UniProt Q8NGI9); assay: as above; format: cell-based; remark: listed apart in the source
T7 construct: expressed in transfected cells; host or cells: HEK293T cells with stably integrated human RTP1S (V227I) and RTP2 (L220R)
T7 sequence (Q8NGI9 with tags, fused parts or gaps): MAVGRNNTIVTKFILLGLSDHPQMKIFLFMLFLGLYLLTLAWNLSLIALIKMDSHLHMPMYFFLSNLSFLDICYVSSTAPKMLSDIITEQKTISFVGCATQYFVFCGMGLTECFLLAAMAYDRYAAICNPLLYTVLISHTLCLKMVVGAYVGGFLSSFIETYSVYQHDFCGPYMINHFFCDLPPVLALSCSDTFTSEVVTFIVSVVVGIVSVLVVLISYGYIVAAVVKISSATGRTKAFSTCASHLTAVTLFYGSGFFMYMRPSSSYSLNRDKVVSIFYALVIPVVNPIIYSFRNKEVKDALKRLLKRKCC
Text: as §1

OR1C1 [10] = molecular target: T8, OR1C1 (Homo sapiens, UniProt Q15619); assay: cell-based; format: cell-based
T8 construct: expressed in transfected cells; host or cells: HEK293T cells stably expressing human RTP1S (V227I) and RTP2 (L220R)
Text: as §1
T8 sequence (Q15619 whole entry): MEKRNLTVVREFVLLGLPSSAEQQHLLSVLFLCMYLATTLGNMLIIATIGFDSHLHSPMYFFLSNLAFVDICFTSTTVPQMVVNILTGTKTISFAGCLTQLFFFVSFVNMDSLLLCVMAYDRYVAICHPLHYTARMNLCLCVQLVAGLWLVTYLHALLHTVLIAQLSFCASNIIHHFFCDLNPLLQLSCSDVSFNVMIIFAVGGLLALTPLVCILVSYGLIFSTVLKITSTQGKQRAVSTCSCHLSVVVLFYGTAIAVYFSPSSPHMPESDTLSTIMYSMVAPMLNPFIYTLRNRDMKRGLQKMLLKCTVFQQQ

OR1C1 [11] = assay: cell-based; format: cell-based, human
Text: as §1

OR1C1 [12] = molecular target: T9, OR1C1 (Homo sapiens, UniProt Q15619); assay: cell-based; format: cell-based; remark: listed apart in the source
T9 construct: expressed in transfected cells; host or cells: HEK293T cells stably expressing human RTP1S (V227I) and RTP2 (L220R)
Text: as §1
T9 sequence (Q15619 with tags, fused parts or gaps): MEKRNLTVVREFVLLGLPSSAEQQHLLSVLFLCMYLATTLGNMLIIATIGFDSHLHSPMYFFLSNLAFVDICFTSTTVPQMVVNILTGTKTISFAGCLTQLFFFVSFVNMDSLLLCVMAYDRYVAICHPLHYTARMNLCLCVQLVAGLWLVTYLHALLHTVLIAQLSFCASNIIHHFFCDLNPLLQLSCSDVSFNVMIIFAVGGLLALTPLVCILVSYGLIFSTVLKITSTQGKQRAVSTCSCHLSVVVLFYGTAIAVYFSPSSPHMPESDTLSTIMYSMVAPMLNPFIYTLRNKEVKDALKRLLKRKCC

OR5AN1 = molecular target: T10, OR5AN1 (Homo sapiens, UniProt Q8NGI8); assay: Chimeric OR5AN1 with C-terminal sequence of OR1N2 (luciferase); format: cell-based
T10 construct: expressed in transfected cells; host or cells: HEK293T stably expressing human RTP1S(V227I) and RTP2(L220R)
T10 sequence (Q8NGI8 with tags, fused parts or gaps limits assumed): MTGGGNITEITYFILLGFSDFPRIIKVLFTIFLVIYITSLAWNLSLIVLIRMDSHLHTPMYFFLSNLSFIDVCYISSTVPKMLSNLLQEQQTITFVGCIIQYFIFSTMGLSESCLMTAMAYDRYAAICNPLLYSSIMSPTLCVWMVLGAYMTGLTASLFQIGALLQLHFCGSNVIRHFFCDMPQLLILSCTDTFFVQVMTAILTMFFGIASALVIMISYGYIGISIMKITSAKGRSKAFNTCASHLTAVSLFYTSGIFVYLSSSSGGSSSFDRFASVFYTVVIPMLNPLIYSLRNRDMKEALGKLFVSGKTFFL
Text: Similarly, the C-terminal sequence of OR5AN1 was replaced with the C-terminal sequence of the ambrettolide receptor OR1 N2.

OR14J1 = molecular target: T11, OR14J1 (Homo sapiens, UniProt Q9UGF5); assay: Activation of modified OR14J1 (SEQ ID NO: 221), library hit and dose-response; format: cell-based; settings: SEQ ID 221
T11 construct: expressed in transfected cells; host or cells: HEK293T stably expressing human RTP1S(V227I) and RTP2(L220R) (general method)
T11 sequence (Q9UGF5 with tags, fused parts or gaps): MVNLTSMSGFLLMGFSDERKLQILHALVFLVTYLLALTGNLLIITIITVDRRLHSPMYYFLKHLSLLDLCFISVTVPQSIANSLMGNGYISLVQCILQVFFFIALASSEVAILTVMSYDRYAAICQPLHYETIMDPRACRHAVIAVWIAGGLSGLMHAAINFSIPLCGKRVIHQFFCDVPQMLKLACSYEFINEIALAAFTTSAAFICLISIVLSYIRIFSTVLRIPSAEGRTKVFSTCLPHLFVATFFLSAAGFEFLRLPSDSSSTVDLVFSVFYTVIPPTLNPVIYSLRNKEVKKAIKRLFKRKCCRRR
Method: Parallel transfection experiments were conducted with all these plasmids (n = 408) and cells expressing the different OR were stimulated with one given ligand at a time, tested at the maximal, clearly non-cytotoxic concentration. In total 26 different ligands were tested on the full library of class II receptors.
Table 16. Ligands tested on the full library of OR and cognate receptors identified for these ligands

OR56A4 [13] = molecular target: T12, OR56A4 (Homo sapiens, UniProt Q8NGH8); assay: cell-based; format: cell-based
T12 construct: expressed in transfected cells; host or cells: HEK293T stably expressing human RTP1S(V227I) and RTP2(L220R)
T12 sequence (Q8NGH8 1-313): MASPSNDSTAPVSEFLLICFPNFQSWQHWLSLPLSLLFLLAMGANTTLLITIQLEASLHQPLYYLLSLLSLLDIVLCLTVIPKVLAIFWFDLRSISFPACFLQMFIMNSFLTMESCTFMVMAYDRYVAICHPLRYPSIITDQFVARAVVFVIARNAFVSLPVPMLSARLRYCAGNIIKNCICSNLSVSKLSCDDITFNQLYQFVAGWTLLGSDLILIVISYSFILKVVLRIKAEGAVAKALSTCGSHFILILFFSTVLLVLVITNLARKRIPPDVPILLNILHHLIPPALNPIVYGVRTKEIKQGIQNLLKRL
Text: as §1
(§2) Activation of OR56A4 by acids of different chain length was further tested. […] Replacing the wild-type with the C-terminal sequence of the functional OR51 E1 did reduce activity. However, using the optimized sequence form Examples 1-5 led to a strong signal and much lower detection threshold upon addition of all three acids.

OR56A4 [14] = assay: cell-based; format: cell-based, human
Text: as §1, §2

OR56A4 [15] = molecular target: T13, OR56A4 (Homo sapiens, UniProt Q8NGH8, T299N); assay: cell-based; format: cell-based
T13 construct: expressed in transfected cells; host or cells: HEK293T stably expressing human RTP1S(V227I) and RTP2(L220R)
T13 sequence (Q8NGH8 with tags, fused parts or gaps T299N): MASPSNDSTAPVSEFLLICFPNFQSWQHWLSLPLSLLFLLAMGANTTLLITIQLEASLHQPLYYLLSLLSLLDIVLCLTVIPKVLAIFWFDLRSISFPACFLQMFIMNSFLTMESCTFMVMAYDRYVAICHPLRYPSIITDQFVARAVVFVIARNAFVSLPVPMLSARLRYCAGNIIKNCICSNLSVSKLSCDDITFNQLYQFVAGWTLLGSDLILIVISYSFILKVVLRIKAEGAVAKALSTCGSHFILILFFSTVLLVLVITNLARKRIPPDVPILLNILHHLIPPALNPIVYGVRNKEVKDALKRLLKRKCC
Text: as §1, §2

[16] = changed C-term SEQ ID NO: 86, read-out: Potency EC50
[17] = Potency EC50, changed C-term SEQ ID NO: 86
[18] = wild-type, read-out: Potency EC50

SMILES: Cc1ccc2c(c1)OCC(=O)CO2 [Calone]
- Comments on efficacy (OR10H5 [1]): 3-fold lower maximal induction for wild-type
- Fold-improvement threshold (OR10H5 [1]): 2.5
- Fold-improvement potency (OR10H5 [1]; higher EC50 due to much higher efficacy of optimized C-terminus): 0.7 *
- EC50 (OR10H5 [2]; [16]): 60 µM
- Detection threshold; concentration for 2-fold induction (OR10H5 [2]; changed C-term. SEQ ID NO: 86): 24.3 µM
- Detection threshold; concentration for 2-fold induction (OR10H5 [3]): 60.1 µM
- EC50 (OR10H5 [3]; read-out: Potency EC50): 41 µM

SMILES: C=CCSSCC=C [Diallyl disulfide]
- EC50 (OR2T11 [4]; [17]): 6.51 µM
- Detection threshold; concentration for 2-fold induction (OR2T11 [4]; changed C-term. SEQ ID NO: 86): 2.03 µM
- EC50 (OR2T11 [5]; Potency EC50, wild-type): > 200 µM
- Detection threshold; concentration for 2-fold induction (OR2T11 [5]; wild-type): >200 µM
- Comments on efficacy (OR2T11 [6]): No induction wild-type
- Fold-improvement potency (OR2T11 [6]): >>40
- Fold-improvement threshold (OR2T11 [6]): >100
- ligands identified in screening of sulfur odorants (OR2T4): good ligands

SMILES: CC1COCc2cc3c(cc21)C(C)(C)C(C)C3(C)C (stereo not drawn) [Galaxolide]
- EC50 (OR5A2 [7]; Potency EC50, wild-type): > 31 µM
- Detection threshold; concentration for 2-fold induction (OR5A2 [7]; wild-type): n.i. (>> 31) µM
- activation of the wild-type receptor (OR5A2 [7]; wild-type OR5A2): No activation
- Comments on efficacy (OR5A2 [8]): No induction wild-type
- Fold-improvement potency (OR5A2 [8]): >300
- Fold-improvement threshold (OR5A2 [8]): >20000
- concentration at which activation occurs (OR5A2 [9]; OR5A2 with SEQ ID NO: 86): < 0.01 µM
- EC50 (OR5A2 [9]; [17]): 0.1 µM
- Detection threshold; concentration for 2-fold induction (OR5A2 [9]; changed C-term. SEQ ID NO: 86): 0.0016 µM

SMILES: C=CC(C)(O)CCC=C(C)C (stereo not drawn) [Linalool]
- Detection threshold; concentration for 2-fold induction (OR1C1 [10]): 34.7 µM
- EC50 (OR1C1 [10]; [18]): 379 µM
- Fold-improvement potency (OR1C1 [11]): 1.9
- Fold-improvement threshold (OR1C1 [11]): 2.1
- Detection threshold; concentration for 2-fold induction (OR1C1 [12]): 16.2 µM
- EC50 (OR1C1 [12]; [16]): 202 µM

SMILES: CC(=O)c1c(C)c([N+](=O)[O-])c(C(C)(C)C)c([N+](=O)[O-])c1C [Musk ketone]
- functional response (OR5AN1): not showing any functional response

SMILES: C[C@H]1CCC2(O)C(C)(C)C3CCC2(C)C1C3 (stereo partly drawn) [Patchoulol, (4S)-4,8a,9,9-tetramethyloctahydro-1,6-methanonaphthalen-1(2H)-ol]
- activation of OR14J1 (OR14J1): activate OR14J1; also recorded: strong induction

- Detection threshold; concentration for 2-fold induction (OR56A4 [13]): 43 µM
- activation of wild-type OR56A4 (OR56A4 [13]; wild-type): activated at high concentration
- EC50 (OR56A4 [13]; [18]): 114 µM
- Detection threshold; concentration for 2-fold induction (OR56A4 [15]): 3.2 µM
- EC50 (OR56A4 [15]; [16]): 22 µM
SMILES: CCCCCCCCCCC(=O)O [Undecanoic acid]
- Fold-improvement potency (OR56A4 [14]): 5.1
- Fold-improvement threshold (OR56A4 [14]): 13.5
